Experimental data from US11998541B2, “Method for alleviating chronic liver disease using Rosoxacin” (National Yang Ming Chiao Tung University, priority 2022, dated 2024).
Entries after “also recorded” stand apart in the source; their conditions may differ.

What was measured:
HepG2 cells [1] = assay: Amount of accumulated lipid droplets in fatty acid-treated HepG2 cells (BODIPY, flow cytometry); assay type: cell-based, human; details: FIG. 2
Procedure: The HepG2 cells prepared in section 1 of “General Experimental Materials” were divided into 6 groups, including a normal control group, two comparative groups (i.e., comparative groups 1 and 2), a pathological control group, and two experimental groups (i.e., experimental groups 1 and 2). Each group of the HepG2 cells was incubated in a respective well of a 24-well culture plate containing 1 mL of DMEM medium at 1.2×10^5 cells/well, followed by cultivation in an incubator with culture conditions set at 37° C., 5% CO2. On the 24th and 48th hours after cultivation, the culture medium in each well was removed, and the cells of the respective group were added with the respective testing agent as shown in Table 2 below. […] After that, the supernatant was poured off, and the pellet was subjected to a fixation treatment with 4% paraformaldehyde (in PBS) for 15 minutes, followed by determining the fluorescence intensity using a flow cytometer (BD Biosciences, Cat. No. BD Accuri C6). The BODIPY was excited by an argon-ion laser (488 nm) to generate fluorescence. The fluorescence intensity was then measured at a wavelength of 504 nm, and 10,000 cells were analyzed each time. The data thus obtained were analyzed using BD Accuri C6 software, so as to obtain the mean fluorescence intensity (MFI) value in each group. […]

male C57BL/6JNarl mice [2] = assay: High-fat diet induced NAFLD in mice, oral rosoxacin; assay type: in vivo; details: for lipid droplets accumulated in liver (hematoxylin-eosin histology) / aspartate transaminase (AST) content in serum / alanine transaminase (ALT) content in serum: HFD; for lipid droplets accumulated in liver (hematoxylin-eosin histology): FIG. 5; for aspartate transaminase (AST) content in serum: FIG. 6; for alanine transaminase (ALT) content in serum: FIG. 7; for liver weight: FIG. 4
From the text: The male C57BL/6JNarl mice were randomly divided into a normal control group, a pathological control group, and two experimental groups (i.e., experimental groups 1 and 2) (n=5 per group). The mice in the normal control group were fed ad libitum for a total of 14 weeks with a normal chow diet (NCD) (Altromin, Cat. No. 1320). In addition, the mice in each of the pathological control group and the experimental groups 1 and 2 were fed ad libitum for a total of 14 weeks with a high-fat diet (HFD) (Research Diets, Cat. No. D12492) containing 60% fat, so as to induce NAFLD.
On the 5th week after feeding the diet to the mice in each group as described in section B of this example, the mice in each of the experimental groups 1 and 2 were also fed, via oral gavage, with the rosoxacin solution prepared in section A of this example, at a respective dose of 10 mg/kg per mouse and 50 mg/kg per mouse. In addition, the mice in each of the normal control group and the pathological control group were fed, via oral gavage, with PBS at a volume of 150 μL. Each mouse was fed once every two days until the end of the 14th week after feeding with the diets.
Prior to the feeding of the diets as described in section B of this example (i.e., at the 0th week), on the 1st day of each week after starting the feeding of the diets, and at the end of the 14th week after starting the feeding of the diets, the body weight of each mouse was measured.
After completion of the determination of body weight at the end of the 14th week, the mice in each group were sacrificed using CO2, and blood samples were collected via cardiac puncture at the same time. Each of the blood samples was then subjected to centrifugation at 4° C. under a speed of 1200 g for […], so as to obtain a serum sample. In addition, liver tissue was obtained from each mouse carcass, and then was subjected to weight measurement. The data thus obtained were analyzed according to the procedures as described in section 1 of “General Procedures”.
The liver tissue of each mouse obtained in section D of this example was subjected to a fixation treatment with a 10% paraformaldehyde solution for 24 hours. Next, the fixed liver tissue was subjected to a dehydration treatment performed in sequence using ethanol solutions having concentrations of […], respectively. After that, the dehydrated liver tissue was washed with xylene, and was then embedded with paraffin, followed by slicing, so as to obtain a tissue section having a thickness of 5 μm.
After dewaxing, the tissue section was subjected to hematoxylin-eosin staining using a staining protocol well-known to those skilled in the art, and was then observed under an optical microscope (Leica, Cat. No. DM2500) at a magnification of 20×.
The serum sample of each mouse obtained in section D of this example was subjected to determination of liver function indexes (i.e., aspartate transaminase (AST) and alanine transaminase (ALT)) which was entrusted to Bio-Cando Co., Ltd., so as to assess the degree of liver injury in the mouse. The data thus obtained were analyzed according to the procedures as described in section 1 of “General Procedures”.

α-SMA = assay: Expression level of α-SMA in fatty acid-treated LX-2 cells (Western blotting); assay type: cell-based, human; details: fatty acid mixture + rosoxacin 50 μM (24th, 48th h), 900 μM (72nd h), p<0.0001, FIG. 8
Procedure: Each group of the LX-2 cells was incubated in a respective well of a 24-well culture plate containing 1 mL of DMEM medium at 1.2×10^5 cells/well, followed by cultivation in an incubator with culture conditions set at 37° C., 5% CO2. On the 24th and 48 th hours after cultivation, the culture medium in each well was removed, and the cells of the respective group were added with the respective testing agent as shown in Table 3 below. In addition, on the 72nd hour after cultivation, the cell culture of the respective group was added with the respective testing agent as shown in Table 3. On the 96th hour after cultivation, the liquid in each well was removed, and the cells were washed with PBS, followed by adding 500 μL of trypsin-EDTA to detach the cells from the bottom of the plate. Subsequently, 1 mL fresh DMEM medium was added to each well to neutralize trypsin activity, followed by centrifugation at 4° C. under a speed of 300 g for 3 minutes, so as to form a supernatant and a pellet. After that, the supernatant was poured off, and the resultant cell pellet was collected. […] The protein concentration in the total protein sample was determined using bicinchoninic acid assay kit (Thermo, Cat. No. 23227) in accordance with the manufacturer's instructions. […] Subsequently, ImageJ Imaging Software was used for semi-quantitatively calculating the corresponding protein expression level. […]

male C57BL/6JNarl mice [3] = assay: CDAA diet induced NASH / liver fibrosis in mice, oral rosoxacin; assay type: in vivo; details: 50 mg/kg oral gavage once every two days, week 3 to 6 of CDAA diet
From the text: The male C57BL/6JNarl mice were randomly divided into a normal control group, a pathological control group, and an experimental group (n=6 per group). The mice in the normal control group were fed ad libitum for a total of 6 weeks with a normal chow diet (NCD) (Altromin, Cat. No. 1320). In addition, the mice in each of the pathological control group and the experimental group were fed ad libitum for a total of 6 weeks with a choline deficient L-amino acid defined diet (CDAA) (Research Diets, Cat. No. A21060401) containing 45% fat and 0.2% cholesterol, so as to induce NASH.
On the 3rd week after feeding the diet to the mice in each group as described in the preceding paragraph, the mice in the experimental group were also fed, via oral gavage, with the rosoxacin solution prepared in section A of Example 2, at a dose of 50 mg/kg per mouse. In addition, the mice in each of the normal control group and the pathological control group were fed, via oral gavage, with PBS at a volume of 150 μL. Each mouse was fed once every two days until the end of the 6th week after feeding with the diets. […]
Next, ImageJ Imaging software was used for quantitatively calculating the percentage (%) of Sirius Red-stained area. […] The data thus obtained were analyzed according to the procedures as described in section 1 of “General Procedures”.

HepG2 cells [4] = assay: Relative amount of accumulated lipid droplets in HepG2 cells, different quinolone antibiotics (BODIPY); assay type: cell-based, human; details: fatty acid mixture + antibiotic 50 μM (24th, 48th h), 900 μM (72nd h); FIG. 11
Procedure: The HepG2 cells prepared in section 1 of “General Experimental Materials” were divided into 7 groups, including a pathological control group, an experimental group, and five comparative groups (i.e., comparative groups 1 to 5). Each group of the HepG2 cells was incubated in a respective well of a 24-well culture plate containing 1 mL of DMEM medium at 1.2×10^5 cells/well, followed by cultivation in an incubator with culture conditions set at 37° C., 5% CO2.
On the 24th and 48th hours after cultivation, the culture medium in each well was removed, and the cells of the respective group were added with the respective testing agent as shown in Table 5 below. […]
The cell suspension of the respective one of the pathological control group, the experimental group, and the comparative groups 1 to 5 obtained in section B of this example was added with 50 μL of BODIPY solution (DMEM containing 13 μg/mL BODIPY 493/504 (Sigma-Aldrich, Cat No. 790389)), followed by placing on ice for 30 minutes in the dark to allow neutral lipid staining to be carried out. […] After that, the supernatant was poured off, and the pellet was subjected to a fixation treatment with 4% paraformaldehyde (in PBS) for 15 minutes, followed by determination of fluorescence intensity using a flow cytometer (BD Biosciences, Cat. No. BD Accuri C6).
The BODIPY was excited by an argon-ion laser (488 nm) to generate fluorescence. […]

[5] = experimental group 1: 10 mg/kg oral gavage once every two days
[6] = experimental group 2: 50 mg/kg oral gavage once every two days

CCn1cc(C(=O)O)c(=O)c2ccc(-c3ccncc3)cc21 [rosoxacin, 1-ethyl-4-oxo-7-(4-pyridyl)-1,4-dihydroquinoline-3-carboxylic acid]
mean fluorescence intensity (MFI) value (accumulated lipid droplets) (HepG2 cells [1]; experimental group 1: fatty acid mixture + rosoxacin 10 μM (24th, 48th h), 180 μM (72nd h)): lower than that of the pathological control group
mean fluorescence intensity (MFI) value (accumulated lipid droplets) (HepG2 cells [1]; experimental group 2: fatty acid mixture + rosoxacin 50 μM (24th, 48th h), 900 μM (72nd h), p<0.001): significantly lower than that determined in the pathological control group
lipid droplets accumulated in liver (hematoxylin-eosin histology) (male C57BL/6JNarl mice [2]; [5]): significantly lower than those in the pathological control group
aspartate transaminase (AST) content in serum (male C57BL/6JNarl mice [2]; [5]): apparently or significantly lower than those determined in the pathological control group
alanine transaminase (ALT) content in serum (male C57BL/6JNarl mice [2]; [5]): apparently or significantly lower than those determined in the pathological control group
liver weight (male C57BL/6JNarl mice [2]; experimental group 1: 10 mg/kg oral gavage once every two days, week 5 to 14 of HFD, 10 mg/kg): apparently or significantly lower than that determined in the pathological control group
lipid droplets accumulated in liver (hematoxylin-eosin histology) (male C57BL/6JNarl mice [2]; [6]): significantly lower than those in the pathological control group
aspartate transaminase (AST) content in serum (male C57BL/6JNarl mice [2]; [6]): apparently or significantly lower than those determined in the pathological control group
alanine transaminase (ALT) content in serum (male C57BL/6JNarl mice [2]; experimental group 2: 50 mg/kg oral gavage once every two days, p<0.05): significantly lower than that determined in the pathological control group
liver weight (male C57BL/6JNarl mice [2]; experimental group 2: 50 mg/kg oral gavage once every two days, week 5 to 14 of HFD, 50 mg/kg): apparently or significantly lower than that determined in the pathological control group; also recorded: even lower than that of the normal control group
body weight (male C57BL/6JNarl mice [2]; experimental group 2: 50 mg/kg oral gavage once every two days, week 5 to 14 of HFD, p<0.05, FIG. 3): significantly lower than that determined in the pathological control group
expression level of α-SMA (normalized to β-actin) (α-SMA): significantly lower than that determined in the pathological control group; also recorded: even lower than that determined in the normal control group
lipid droplets accumulated in liver (hematoxylin-eosin histology) (male C57BL/6JNarl mice [3]; FIG. 9): significantly less than those in the pathological control group
percentage of Sirius Red-stained area (male C57BL/6JNarl mice [3]; p<0.0001, FIG. 10): significantly lower than that determined in the pathological control group
relative percentage of MFI value (pathological control group = 100%) (HepG2 cells [4]): significantly lower than that determined in the pathological control group
